Format in all cases: functional
Assay [1] deals with Plasmodium berghei. Briefly: Antimalarial activity against Plasmodium berghei NK65 infected in Swiss albino mouse assessed as inhibition of parasitemia at 100 mg/kg, po qd for 4 days measured on day 5 of after infection relative to control.
The test system of assay [2] is Plasmodium berghei. Briefly: Antimalarial activity against Plasmodium berghei NK65 infected in Swiss albino mouse assessed as inhibition of parasitemia at 100 mg/kg, po qd for 4 days measured on day 7 of after infection relative to control.
Assay [3] relates to Plasmodium berghei. Briefly: Antimalarial activity against Plasmodium berghei NK65 infected in Swiss albino mouse assessed as increase of survival days of host at 100 mg/kg, po qd for 4 days (reference value: 20 +/- 2.7 days).
Assay [4] relates to Plasmodium berghei. Briefly: Antimalarial activity against Plasmodium berghei NK65 infected in Swiss albino mouse assessed as inhibition of parasitemia at 10 mg/kg, po qd for 4 days measured on day 5 to 7 of after infection relative to control.
For assay [5], the system named is Plasmodium berghei. Briefly: Antimalarial activity against Plasmodium berghei NK65 infected in Swiss albino mouse assessed as increase of survival days of host at 10 mg/kg, po qd for 4 days (reference value: 20 +/- 2.7 days).

Each structure is given as a SMILES string. A value given as a limit tells only on which side of the number the result lay.

For orientation: inhibition in vivo means how much of the control response was suppressed. Consider `O=C1C(O)=C(Nc2ccccc2)C(=O)c2ccccc21`, for which the inhibition in vivo at 100 mg/kg with Plasmodium berghei [1] was 53.3%; in the assay on Plasmodium berghei [2], 18.5%. In addition, the MSD with Plasmodium berghei [3] stood at 32.5 days.

As for `COc1ccc(NC2=C(O)C(=O)c3ccccc3C2=O)cc1`, the inhibition in vivo at 100 mg/kg in the assay with Plasmodium berghei [1] stood at 66.6%; in the assay with Plasmodium berghei [2] it was 25.9%. In the assay on Plasmodium berghei [3], the MSD was found to be 26 days.

Take `Cc1cccc(C)c1NC1=C(O)C(=O)c2ccccc2C1=O`: the inhibition in vivo at 100 mg/kg in the assay on Plasmodium berghei [1] and in the assay with Plasmodium berghei [2] was 0% each time. Besides, the MSD in the assay on Plasmodium berghei [3] amounted to 26.7 days.

With `CCN(CC)CCCC(C)Nc1ccnc2cc(Cl)ccc12` (stereo unspecified) [CHLOROQUINE], the inhibition in vivo at 10 mg/kg in the assay with Plasmodium berghei [4] was found to be 98%. In addition, in the assay with Plasmodium berghei [5], the MSD is above 60 days.

Source of the values: ChEMBL document CHEMBL2406912, “In vivo antimalarial activity of novel 2-hydroxy-3-anilino-1,4-naphthoquinones obtained by epoxide ring-opening reaction” (2013).
